The test system of test [1] is SH-SY-5Y. The experiment in a line: Cell viability assay, SH-SY-5Y. It counts as cell-based. Particulars: Homo sapiens, SH-SY5Y; brain carcinoma cell line SH-SY-5Y. The method, then: (§1) Antitumor activity of the compounds and doxorubicin as a positive control was assessed by using the CellTiter-Blue Cell Viability Assay (Promega, #G8082) or CellTiter-Glow® Luminescent Cell Viability assay (Promega #G7572) according to the manufacturer's instructions. The compounds were tested at 5 or 6 concentrations in half-log increments (highest concentration 30 μM or 100 μM) in duplicate or triplicate well conditions.
(§2) Tumor cells were grown at 37° C. in a humidified atmosphere with 5% CO2 in RPMI 1640 or DMEM medium, supplemented with 10% (v/v) fetal calf serum and 50 μg/ml gentamicin for up to 20 passages, and were passaged once or twice weekly. Cells were harvested using TrypLE or PBS buffer containing 1 mM EDTA, and the percentage of viable cells was determined using a CASY Model TI cell counter (OMNI Life Science). Cells were harvested from exponential phase cultures, counted and plated in 96 well flat-bottom microtiter plates at a cell density depending on the cell line's growth rate (4,000-20,000 cells/well depending on the cell line's growth rate, up to 60,000 for hematological cancer cell lines) in RPMI 1640 or DMEM medium supplemented with 10% (v/v) fetal calf serum and 50 μg/ml gentamicin (140 μl/well). […] Viability of cells was quantified by the CellTiter-Blue® cell viability assay (Promega G8081) or CellTiter-Glow® Luminescent Cell Viability assay (Promega #G7572). […]

Test [2] has as its system CALU-6. The experiment in a line: Cell viability assay, CALU-6. It counts as cell-based. Particulars: Homo sapiens; lung carcinoma cell line CALU-6. As to the method: as §1, §2
The target of test [3] is T1, ABL1-nonphosphorylated (Homo sapiens, UniProt P00519).
T1 construct: purchased Eurofins (KINOMEscan); host or cells: E. coli BL21-derived host (T7 phage) or HEK-293
T1 sequence (P00519 whole entry): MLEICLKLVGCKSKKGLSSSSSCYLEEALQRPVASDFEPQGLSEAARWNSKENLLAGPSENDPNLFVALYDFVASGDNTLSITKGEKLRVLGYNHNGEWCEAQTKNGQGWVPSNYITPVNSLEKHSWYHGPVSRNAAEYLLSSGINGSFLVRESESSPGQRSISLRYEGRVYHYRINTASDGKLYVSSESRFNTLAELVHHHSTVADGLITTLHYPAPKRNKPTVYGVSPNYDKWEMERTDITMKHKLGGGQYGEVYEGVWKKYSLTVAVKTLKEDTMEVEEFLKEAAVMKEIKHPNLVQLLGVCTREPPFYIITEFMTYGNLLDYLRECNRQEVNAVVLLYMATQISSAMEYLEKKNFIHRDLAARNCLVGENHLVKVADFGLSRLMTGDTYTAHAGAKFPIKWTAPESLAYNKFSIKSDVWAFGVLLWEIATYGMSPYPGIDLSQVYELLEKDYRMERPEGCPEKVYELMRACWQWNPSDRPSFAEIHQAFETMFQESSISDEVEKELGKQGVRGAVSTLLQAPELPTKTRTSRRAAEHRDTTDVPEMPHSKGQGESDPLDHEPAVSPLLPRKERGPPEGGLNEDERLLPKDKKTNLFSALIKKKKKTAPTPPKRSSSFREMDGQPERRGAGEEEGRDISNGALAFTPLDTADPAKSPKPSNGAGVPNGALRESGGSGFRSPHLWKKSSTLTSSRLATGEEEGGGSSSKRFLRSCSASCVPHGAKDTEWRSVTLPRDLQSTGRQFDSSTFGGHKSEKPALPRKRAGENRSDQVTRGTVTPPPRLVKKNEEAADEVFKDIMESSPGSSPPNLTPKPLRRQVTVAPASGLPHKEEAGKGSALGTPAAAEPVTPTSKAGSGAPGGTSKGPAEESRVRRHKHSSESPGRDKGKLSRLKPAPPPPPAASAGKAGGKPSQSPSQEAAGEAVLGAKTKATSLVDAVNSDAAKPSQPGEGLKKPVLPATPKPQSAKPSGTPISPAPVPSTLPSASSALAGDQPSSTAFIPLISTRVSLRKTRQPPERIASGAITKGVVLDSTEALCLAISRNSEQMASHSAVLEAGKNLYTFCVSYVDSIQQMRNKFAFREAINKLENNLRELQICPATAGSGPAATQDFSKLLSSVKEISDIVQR
The experiment in a line: KINOMEscan competition binding, ABL1-nonphosphorylated. As to the method: (§3) Selected compounds were screened for kinase inhibition using the KINOMEscan™ assay (Eurofins) which is based on a competition binding assay that quantitatively measures the ability of a compound to compete with an immobilized, active-site directed ligand. The assay was performed by combining three components: DNA-tagged kinase; immobilized ligand; and the test compound. The ability of the test compound to compete with the immobilized ligand was measured via quantitative PCR of the DNA tag.
(§4) Kinase-tagged T7 phage strains were prepared in an E. coli host derived from the BL21 strain. E. coli were grown to log-phase and infected with T7 phage and incubated with shaking at 32° C. until lysis. The lysates were centrifuged and filtered to remove cell debris. The remaining kinases were produced in HEK-293 cells and subsequently tagged with DNA for qPCR detection. Streptavidin-coated magnetic beads were treated with biotinylated small molecule ligands for 30 minutes at room temperature to generate affinity resins for kinase assays. […] Kds were determined using an 11-point 3-fold compound dilution series with three DMSO control points. […] The kinase concentration in the eluates was measured by qPCR. […]
(§5) Binding constants (Kds) were calculated with a standard dose-response curve using the Hill equation: Response=Background+[Signal−Background/1+(Kd^Hill Slope/Dose^Hill Slope)] […]

In test [4] the target is T2, CDK11 (Homo sapiens, UniProt Q9BWU1).
T2 construct: purchased Eurofins (KINOMEscan); host or cells: E. coli BL21-derived host (T7 phage) or HEK-293
T2 sequence (Q9BWU1 whole entry): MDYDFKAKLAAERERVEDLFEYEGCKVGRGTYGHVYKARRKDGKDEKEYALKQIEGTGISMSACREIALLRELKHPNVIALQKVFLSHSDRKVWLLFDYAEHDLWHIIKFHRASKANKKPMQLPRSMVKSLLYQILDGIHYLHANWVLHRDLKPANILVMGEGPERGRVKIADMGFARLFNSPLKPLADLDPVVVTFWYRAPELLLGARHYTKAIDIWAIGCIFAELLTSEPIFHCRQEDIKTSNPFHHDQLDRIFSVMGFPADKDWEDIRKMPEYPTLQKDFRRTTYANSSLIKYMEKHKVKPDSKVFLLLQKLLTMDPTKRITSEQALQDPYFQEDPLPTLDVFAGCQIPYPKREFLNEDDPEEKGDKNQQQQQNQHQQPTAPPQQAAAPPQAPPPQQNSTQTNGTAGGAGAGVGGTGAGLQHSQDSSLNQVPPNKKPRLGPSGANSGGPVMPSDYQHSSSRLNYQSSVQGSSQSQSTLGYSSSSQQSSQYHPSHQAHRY
The experiment in a line: KINOMEscan competition binding, CDK11. As to the method: as §3, §4, §5

Test [5] concerns the target T3, TIE2 (Homo sapiens, UniProt Q02763).
T3 construct: purchased Eurofins (KINOMEscan); host or cells: E. coli BL21-derived host (T7 phage) or HEK-293
As to the kind of experiment: KINOMEscan competition binding, TIE2. The method, then: as §3, §4, §5

For test [6], the target named is T4, TRKA (Homo sapiens, UniProt P04629).
T4 construct: purchased Eurofins (KINOMEscan); host or cells: E. coli BL21-derived host (T7 phage) or HEK-293
T4 sequence (P04629 33-796): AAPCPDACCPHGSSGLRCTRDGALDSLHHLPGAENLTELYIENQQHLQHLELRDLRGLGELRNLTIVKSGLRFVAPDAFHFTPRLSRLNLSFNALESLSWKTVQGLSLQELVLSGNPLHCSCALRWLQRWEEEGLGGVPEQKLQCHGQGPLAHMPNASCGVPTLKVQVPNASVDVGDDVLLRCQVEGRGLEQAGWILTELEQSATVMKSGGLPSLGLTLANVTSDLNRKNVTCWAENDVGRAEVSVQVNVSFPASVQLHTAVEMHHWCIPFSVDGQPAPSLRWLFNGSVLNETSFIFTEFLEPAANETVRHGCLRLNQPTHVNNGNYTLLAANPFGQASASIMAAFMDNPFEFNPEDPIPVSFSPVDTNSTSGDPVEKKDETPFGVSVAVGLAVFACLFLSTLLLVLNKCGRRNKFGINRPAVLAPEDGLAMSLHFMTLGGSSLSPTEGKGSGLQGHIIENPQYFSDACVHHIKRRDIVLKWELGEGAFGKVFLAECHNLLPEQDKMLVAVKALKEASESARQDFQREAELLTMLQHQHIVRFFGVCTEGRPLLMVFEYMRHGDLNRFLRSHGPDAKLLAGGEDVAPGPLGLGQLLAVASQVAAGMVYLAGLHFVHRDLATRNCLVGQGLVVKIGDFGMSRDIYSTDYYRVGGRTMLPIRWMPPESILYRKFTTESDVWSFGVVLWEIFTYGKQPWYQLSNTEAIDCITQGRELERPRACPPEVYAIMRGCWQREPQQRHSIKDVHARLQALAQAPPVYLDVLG
The experiment in a line: KINOMEscan competition binding, TRKA. As to the method: as §3, §4, §5

Test [7] relates to brain cancer cell. The experiment in a line: Cell viability, brain cancer cells (panel statement). It counts as cell-based. Particulars: text summary of Tables 3A-3C; read-out: IC50, brain cancer cell growth. As to the method:
as §1, §2

For test [8], the system named is breast cancer cell. The experiment in a line: Cell viability, breast cancer cells (panel statement). It counts as cell-based. Particulars: text summary of Tables 4A & 4B; read-out: IC50, breast cancer cell growth. The method, then:
as §1, §2

The subject of test [9] is ovarian cancer cell. As to the kind of experiment: Cell viability, ovarian cancer cells (panel statement). Particulars: Table 17; read-out: IC50, ovarian cancer cell growth. It counts as cell-based. As to the method: as §1, §2
Test [10] concerns H69AR. As to the kind of experiment: Cell viability assay, H69AR. Particulars: SCLC doxorubicin resistant cell line H69AR. It counts as cell-based. As to the method: as §1, §2

T3 sequence (Q02763 23-1124): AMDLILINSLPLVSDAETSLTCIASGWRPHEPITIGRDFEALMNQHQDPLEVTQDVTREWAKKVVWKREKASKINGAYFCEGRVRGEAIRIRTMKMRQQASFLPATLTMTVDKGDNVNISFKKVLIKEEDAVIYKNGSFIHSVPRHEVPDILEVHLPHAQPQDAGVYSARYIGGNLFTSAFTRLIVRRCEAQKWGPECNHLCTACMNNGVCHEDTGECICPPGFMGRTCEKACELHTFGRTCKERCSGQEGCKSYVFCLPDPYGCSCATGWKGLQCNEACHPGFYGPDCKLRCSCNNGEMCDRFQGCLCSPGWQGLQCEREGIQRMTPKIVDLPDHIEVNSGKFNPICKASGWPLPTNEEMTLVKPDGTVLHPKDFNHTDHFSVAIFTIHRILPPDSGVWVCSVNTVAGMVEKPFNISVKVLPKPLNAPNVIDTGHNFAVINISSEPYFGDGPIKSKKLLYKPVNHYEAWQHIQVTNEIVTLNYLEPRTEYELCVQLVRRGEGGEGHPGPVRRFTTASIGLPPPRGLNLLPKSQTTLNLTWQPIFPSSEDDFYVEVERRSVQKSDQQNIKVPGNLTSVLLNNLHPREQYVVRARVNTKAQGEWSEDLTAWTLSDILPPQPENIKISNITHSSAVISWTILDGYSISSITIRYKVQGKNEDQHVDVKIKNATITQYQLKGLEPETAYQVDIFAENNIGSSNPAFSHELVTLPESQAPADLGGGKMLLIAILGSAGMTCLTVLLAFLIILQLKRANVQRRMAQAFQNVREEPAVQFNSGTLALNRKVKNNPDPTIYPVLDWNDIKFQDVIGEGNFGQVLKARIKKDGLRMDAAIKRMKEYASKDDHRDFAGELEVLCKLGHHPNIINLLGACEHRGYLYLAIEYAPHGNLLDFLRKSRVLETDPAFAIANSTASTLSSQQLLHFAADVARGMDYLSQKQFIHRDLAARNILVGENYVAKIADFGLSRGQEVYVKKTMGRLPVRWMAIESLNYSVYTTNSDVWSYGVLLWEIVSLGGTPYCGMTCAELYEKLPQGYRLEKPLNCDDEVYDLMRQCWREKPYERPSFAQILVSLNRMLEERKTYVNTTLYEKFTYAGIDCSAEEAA

As a reminder, the IC50 is the concentration needed to halve the response being measured. For orientation: Kd means the equilibrium constant for the complex coming apart. The low end stands for tighter binding, the high end for weaker binding. As for `COc1c(O)ccc2c(=O)c(O)c(-c3ccc(CCCC[P+](c4ccccc4)(c4ccccc4)c4ccccc4)cc3)oc12` [SND190, (4-(4-(3,7-Dihydroxy-8-methoxy-4-oxo-4H1-chromen-2-yl)phenyl)butyl)triphenylphosphonium bromide], the half-maximal inhibitory concentration (IC50) is 2600 nM in [1]; 2390 nM in test [2]; under 20000 nM in [7]; under 5000 nM in [8]; under 20000 nM in test [9]. For the same compound, the Kd in [3] is 460 nM; in [4], 3600 nM; in [5], 40 nM; in test [6] it was 2300 nM.
As to `O=c1cc(-c2ccc(CCC[P+](c3ccccc3)(c3ccccc3)c3ccccc3)cc2)oc2c(O)c(O)ccc12` [SND200, (3-(4-(7,8-Dihydroxy-4-oxo-4H1-chromen-2-yl)phenyl)propyl)triphenylphosphonium bromide], the half-maximal inhibitory concentration (IC50) in test [10] was in the range of 4000 to 25000 nM.
